Measured values from patent US20220064146A1, “KINASE INHIBITOR COMPOUNDS AND COMPOSITIONS AND METHODS OF USE” (ICAHN SCHOOL OF MEDICINE AT MOUNT SINAI, priority 2018, published 2022).

Target: T1, DYRK1/DYRK1A (Homo sapiens, UniProt Q13627)
T1 construct: purchased Reaction Biology Corp. (assay service)
Assay: DYRK1/DYRK1A IC50 assay (Reaction Biology Corp.)
Type: biochemical
Conditions: DYRK1/DYRK1A assay from Reaction Biology Corp.; NI: No inhibition

Row | SMILES | IC50 [µM]
1 | O=c1[nH]c2ccc(-c3cnc(NCc4ncc[nH]4)nc3)cc2[nH]1 [Compound 51c, 5-(2-(((1H-Imidazol-2-yl)methyl)amino)pyrimidin-5-yl)-1H-benzo[d]imidazol-2(3H)-one] | 0.96
2 | COCCOc1cccc(CNc2ncc(-c3ccc4[nH]c(=O)[nH]c4c3)cn2)c1 [Compound 62, 5-(2-((3-(2-Methoxyethoxy)benzyl)amino)pyrimidin-5-yl)-1H-benzo[d]imidazol-2(3H)-one] | 0.0484
3 | COc1ccccc1Nc1ncc(-c2ccc3[nH]c(=O)[nH]c3c2)cn1 [Compound 48g, 5-(2-((2-Methoxyphenyl)amino)pyrimidin-5-yl)-1H-benzo[d]imidazol-2(3H)-one] | 0.497
4 | O=c1[nH]c2ccc(-c3cnc(Nc4ccccc4F)nc3)cc2[nH]1 [Compound 48a, 5-(2-((2-Fluorophenyl)amino)pyrimidin-5-yl)-1H-benzo[d]imidazol-2(3H)-one] | 0.078
5 | O=c1[nH]c2ccc(-c3cnc(Nc4ccc(F)cc4)nc3)cc2[nH]1 [Compound 48c, 5-(2-((4-Fluorophenyl)amino)pyrimidin-5-yl)-1H-benzo[d]imidazol-2(3H)-one] | 0.058
6 | O=c1[nH]c2ccc(-c3cnc(NCCCc4ccccc4)nc3)cc2[nH]1 [Compound 29l, 5-(2-((3-Phenylpropyl)amino)pyrimidin-5-yl)-1H-benzo[d]imidazol-2(3H)-one] | 0.034
7 | O=c1[nH]c2ccc(-c3cnc(NCc4ccccc4)nc3)cc2n1C1CC1 [Compound 57c, 6-(2-(Benzylamino)pyrimidin-5-yl)-1-cyclopropyl-1H-benzo[d]imidazol-2(3H)-one] | 0.714
8 | O=c1[nH]c2ccc(-c3cnc(Nc4ccccc4Cl)nc3)cc2[nH]1 [Compound 48d, 5-(2-((2-Chlorophenyl)amino)pyrimidin-5-yl)-1H-benzo[d]imidazol-2 (3H)-one] | 0.059
9 | C[C@H](Nc1ncc(-c2ccc3[nH]c(=O)[nH]c3c2)cn1)c1ccccc1 [Compound 60b, (S)-5-(2-((1-Phenylethyl)amino)pyrimidin-5-yl)-1H-benzo[d]imidazol-2(3H)-one] | 0.177
10 | O=c1[nH]c2ccc(-c3cnc(Nc4cccc(Cl)c4)nc3)cc2[nH]1 [Compound 48e, 5-(2-((3-Chlorophenyl)amino)pyrimidin-5-yl)-1H-benzo[d]imidazol-2 (3H)-one] | 0.0549
11 | C[C@@H](Nc1ncc(-c2ccc3[nH]c(=O)[nH]c3c2)cn1)c1ccccc1 [Compound 60a, (R)-5-(2-((1-Phenylethyl)amino)pyrimidin-5-yl)-1H-benzo[d]imidazol-2(3H)-one] | 0.499
12 | O=c1[nH]c2ccc(-c3cnc(Nc4ccc(Cl)cc4)nc3)cc2[nH]1 [Compound 48f, 5-(2-((4-Chlorophenyl)amino)pyrimidin-5yl)-1H-benzo[d]imidazol-2 (3H)-one] | 0.0906
13 | O=c1[nH]c2ccc(-c3cnc(NCc4cccs4)nc3)cc2[nH]1 [Compound 51b, 5-(2-((Thiophen-2-ylmethyl)amino)pyrimidin-5-yl)-1H-benzo[d]imidazol-2(3H)-one] | 0.0327
14 | O=c1[nH]c2ccc(-c3cncc(NCc4ccccc4)n3)cc2[nH]1 [Compound 18m, 5-(6-(Benzylamino)pyrazin-2-yl)-1H-benzo[d]imidazol-2(3H)-one] | 0.00113
15 | O=c1[nH]c2ccc(-c3cnc(NCc4ccco4)nc3)cc2[nH]1 [Compound 51a, 5-(2-((Furan-2-ylmethyl)amino)pyrimidin-5-yl)-1H-benzo[d]imidazol-2(3H)-one] | 0.0732
16 | COc1cccc(Nc2ncc(-c3ccc4[nH]c(=O)[nH]c4c3)cn2)c1 [Compound 48h, 5-(2-((3-Methoxyphenyl)amino)pyrimidin-5-yl)-1H-benzo[d]imidazol-2(3H)-one] | 0.0235
